Reference: PubChem BioAssay (NCI)
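Protocol summary: plate cells (96-well), add compound at 5 concentrations, incubate 48 h, interpolate endpoints linearly. TGI marks complete inhibition of growth.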

How the values were obtained:
Test in all cases: NCI tumour cell line growth inhibition, 48 h
786-0 renal = system: 786-0 renal
A498 renal = system: A498 renal
A549 NSCLC = system: A549 NSCLC
ACHN renal = system: ACHN renal
CCRF-CEM leukemia = system: CCRF-CEM leukemia
COLO 205 colon = system: COLO 205 colon
DLD-1 colon = system: DLD-1 colon
DMS 114 small cell lung = system: DMS 114 small cell lung
DMS 273 small cell lung = system: DMS 273 small cell lung
EKVX NSCLC = system: EKVX NSCLC
HCC-2998 colon = system: HCC-2998 colon
HCT-116 colon = system: HCT-116 colon
HCT-15 colon = system: HCT-15 colon
HL-60(TB) leukemia = system: HL-60(TB) leukemia
HOP-18 NSCLC = system: HOP-18 NSCLC
HOP-62 NSCLC = system: HOP-62 NSCLC
HOP-92 NSCLC = system: HOP-92 NSCLC
HT29 colon = system: HT29 colon
IGROV1 ovarian = system: IGROV1 ovarian
K-562 leukemia = system: K-562 leukemia
KM12 colon = system: KM12 colon
KM20L2 colon = system: KM20L2 colon
LOX IMVI melanoma = system: LOX IMVI melanoma
LXFL 529 NSCLC = system: LXFL 529 NSCLC
M14 melanoma = system: M14 melanoma
M19-MEL melanoma = system: M19-MEL melanoma
MALME-3M melanoma = system: MALME-3M melanoma
MOLT-4 leukemia = system: MOLT-4 leukemia
NCI-H23 lung = system: NCI-H23 lung
NCI-H460 lung = system: NCI-H460 lung
OVCAR-3 ovarian = system: OVCAR-3 ovarian
OVCAR-4 ovarian = system: OVCAR-4 ovarian
OVCAR-5 ovarian = system: OVCAR-5 ovarian
OVCAR-8 ovarian = system: OVCAR-8 ovarian
RPMI-8226 leukemia = system: RPMI-8226 leukemia
RXF 393 renal = system: RXF 393 renal
RXF-631 renal = system: RXF-631 renal
SF-268 CNS = system: SF-268 CNS
SF-295 CNS = system: SF-295 CNS
SF-539 CNS = system: SF-539 CNS
SK-MEL-28 melanoma = system: SK-MEL-28 melanoma
SK-MEL-5 melanoma = system: SK-MEL-5 melanoma
SK-OV-3 ovarian = system: SK-OV-3 ovarian
SN12C renal = system: SN12C renal
SNB-19 CNS = system: SNB-19 CNS
SNB-78 CNS = system: SNB-78 CNS
SR leukemia = system: SR leukemia
SW-620 colon = system: SW-620 colon
TK-10 renal = system: TK-10 renal
U251 CNS = system: U251 CNS
UACC-257 melanoma = system: UACC-257 melanoma
UACC-62 melanoma = system: UACC-62 melanoma
UO-31 renal = system: UO-31 renal
XF 498 CNS = system: XF 498 CNS
CAKI-1 renal = system: CAKI-1 renal
NCI-H522 lung = system: NCI-H522 lung
SK-MEL-2 melanoma = system: SK-MEL-2 melanoma
SNB-75 CNS = system: SNB-75 CNS
NCI-H226 lung = system: NCI-H226 lung

## COc1ccc(O)cc1C=O
786-0 renal
  TGI: > 100 µM
A498 renal
  TGI: > 100 µM
A549 NSCLC
  TGI: > 100 µM
ACHN renal
  TGI: > 100 µM
CCRF-CEM leukemia
  TGI: > 100 µM
COLO 205 colon
  TGI: > 100 µM
DLD-1 colon
  TGI: > 100 µM
DMS 114 small cell lung
  TGI: > 100 µM
DMS 273 small cell lung
  TGI: > 100 µM
EKVX NSCLC
  TGI: > 100 µM
HCC-2998 colon
  TGI: > 100 µM
HCT-116 colon
  TGI: > 100 µM
HCT-15 colon
  TGI: > 100 µM
HL-60(TB) leukemia
  TGI: 54.9 µM
HOP-18 NSCLC
  TGI: > 100 µM
HOP-62 NSCLC
  TGI: > 100 µM
HOP-92 NSCLC
  TGI: > 100 µM
HT29 colon
  TGI: > 100 µM
IGROV1 ovarian
  TGI: > 100 µM
K-562 leukemia
  TGI: > 100 µM
KM12 colon
  TGI: > 100 µM
KM20L2 colon
  TGI: > 100 µM
LOX IMVI melanoma
  TGI: > 100 µM
LXFL 529 NSCLC
  TGI: > 100 µM
M14 melanoma
  TGI: > 100 µM
M19-MEL melanoma
  TGI: > 100 µM
MALME-3M melanoma
  TGI: > 100 µM
MOLT-4 leukemia
  TGI: > 100 µM
NCI-H23 lung
  TGI: > 100 µM
NCI-H460 lung
  TGI: > 100 µM
OVCAR-3 ovarian
  TGI: > 100 µM
OVCAR-4 ovarian
  TGI: > 100 µM
OVCAR-5 ovarian
  TGI: > 100 µM
OVCAR-8 ovarian
  TGI: > 100 µM
RPMI-8226 leukemia
  TGI: > 100 µM
RXF 393 renal
  TGI: > 100 µM
RXF-631 renal
  TGI: > 100 µM
SF-268 CNS
  TGI: > 100 µM
SF-295 CNS
  TGI: > 100 µM
SF-539 CNS
  TGI: > 100 µM
SK-MEL-28 melanoma
  TGI: > 100 µM
SK-MEL-5 melanoma
  TGI: > 100 µM
SK-OV-3 ovarian
  TGI: > 100 µM
SN12C renal
  TGI: > 100 µM
SNB-19 CNS
  TGI: > 100 µM
SNB-78 CNS
  TGI: > 100 µM
SR leukemia
  TGI: 92.3 µM
SW-620 colon
  TGI: > 100 µM
TK-10 renal
  TGI: > 100 µM
U251 CNS
  TGI: > 100 µM
UACC-257 melanoma
  TGI: > 100 µM
UACC-62 melanoma
  TGI: > 100 µM
UO-31 renal
  TGI: > 100 µM
XF 498 CNS
  TGI: > 100 µM

## CN(C)c1ccc(Cc2cc(C(C)(C)C)cc(C(C)(C)C)c2O)cc1
786-0 renal
  TGI: 33.8 µM
A498 renal
  TGI: 34 µM
A549 NSCLC
  TGI: 73.6 µM
ACHN renal
  TGI: 33.2 µM
CAKI-1 renal
  TGI: 39.6 µM
CCRF-CEM leukemia
  TGI: > 100 µM
DLD-1 colon
  TGI: > 100 µM
DMS 114 small cell lung
  TGI: 28.6 µM
DMS 273 small cell lung
  TGI: 34 µM
EKVX NSCLC
  TGI: 46.4 µM
HCC-2998 colon
  TGI: 35.5 µM
HCT-116 colon
  TGI: 26 µM
HCT-15 colon
  TGI: 34.3 µM
HL-60(TB) leukemia
  TGI: > 100 µM
HOP-18 NSCLC
  TGI: 80.5 µM
HOP-62 NSCLC
  TGI: 37.2 µM
HT29 colon
  TGI: 31.1 µM
IGROV1 ovarian
  TGI: 47.8 µM
K-562 leukemia
  TGI: 26.2 µM
KM12 colon
  TGI: 24.6 µM
KM20L2 colon
  TGI: 40.4 µM
LOX IMVI melanoma
  TGI: 22.3 µM
LXFL 529 NSCLC
  TGI: 39.4 µM
M14 melanoma
  TGI: 41.7 µM
M19-MEL melanoma
  TGI: 49.4 µM
MALME-3M melanoma
  TGI: 53 µM
MOLT-4 leukemia
  TGI: 31.5 µM
NCI-H23 lung
  TGI: 33.3 µM
NCI-H460 lung
  TGI: 37.5 µM
NCI-H522 lung
  TGI: 37 µM
OVCAR-4 ovarian
  TGI: 82.7 µM
OVCAR-5 ovarian
  TGI: 18.5 µM
OVCAR-8 ovarian
  TGI: 42 µM
RPMI-8226 leukemia
  TGI: 27.8 µM
RXF 393 renal
  TGI: 30.8 µM
RXF-631 renal
  TGI: 36.3 µM
SF-268 CNS
  TGI: 35.6 µM
SF-295 CNS
  TGI: 35.6 µM
SF-539 CNS
  TGI: 43.1 µM
SK-MEL-2 melanoma
  TGI: 20.1 µM
SK-MEL-28 melanoma
  TGI: 42.6 µM
SK-MEL-5 melanoma
  TGI: 29.5 µM
SK-OV-3 ovarian
  TGI: 74.5 µM
SN12C renal
  TGI: 30.2 µM
SNB-19 CNS
  TGI: 47.1 µM
SNB-75 CNS
  TGI: 79.6 µM
SNB-78 CNS
  TGI: 37.4 µM
SR leukemia
  TGI: 33.8 µM
SW-620 colon
  TGI: 30.6 µM
TK-10 renal
  TGI: 27.1 µM
U251 CNS
  TGI: 30.1 µM
UACC-257 melanoma
  TGI: 34.9 µM
UACC-62 melanoma
  TGI: 30.2 µM
UO-31 renal
  TGI: 32.7 µM
XF 498 CNS
  TGI: 36.5 µM

## O=C(/C=C/c1ccccc1O)C(c1ccccc1)c1ccccc1
786-0 renal
  TGI: > 100 µM
A498 renal
  TGI: > 100 µM
A549 NSCLC
  TGI: > 100 µM
ACHN renal
  TGI: > 100 µM
CAKI-1 renal
  TGI: > 100 µM
CCRF-CEM leukemia
  TGI: > 100 µM
COLO 205 colon
  TGI: > 100 µM
DLD-1 colon
  TGI: > 100 µM
DMS 114 small cell lung
  TGI: > 100 µM
DMS 273 small cell lung
  TGI: > 100 µM
EKVX NSCLC
  TGI: > 100 µM
HCC-2998 colon
  TGI: > 100 µM
HCT-116 colon
  TGI: > 100 µM
HCT-15 colon
  TGI: > 100 µM
HOP-18 NSCLC
  TGI: > 100 µM
HOP-62 NSCLC
  TGI: > 100 µM
HOP-92 NSCLC
  TGI: > 100 µM
HT29 colon
  TGI: > 100 µM
IGROV1 ovarian
  TGI: > 100 µM
K-562 leukemia
  TGI: > 100 µM
KM12 colon
  TGI: > 100 µM
KM20L2 colon
  TGI: > 100 µM
LOX IMVI melanoma
  TGI: 62.3 µM
LXFL 529 NSCLC
  TGI: > 100 µM
M14 melanoma
  TGI: > 100 µM
M19-MEL melanoma
  TGI: > 100 µM
MALME-3M melanoma
  TGI: > 100 µM
MOLT-4 leukemia
  TGI: > 100 µM
NCI-H226 lung
  TGI: > 100 µM
NCI-H23 lung
  TGI: > 100 µM
NCI-H460 lung
  TGI: > 100 µM
NCI-H522 lung
  TGI: > 100 µM
OVCAR-3 ovarian
  TGI: > 100 µM
OVCAR-4 ovarian
  TGI: > 100 µM
OVCAR-5 ovarian
  TGI: > 100 µM
OVCAR-8 ovarian
  TGI: > 100 µM
RPMI-8226 leukemia
  TGI: > 100 µM
RXF 393 renal
  TGI: > 100 µM
RXF-631 renal
  TGI: > 100 µM
SF-268 CNS
  TGI: > 100 µM
SF-295 CNS
  TGI: > 100 µM
SF-539 CNS
  TGI: > 100 µM
SK-MEL-2 melanoma
  TGI: > 100 µM
SK-MEL-28 melanoma
  TGI: > 100 µM
SK-MEL-5 melanoma
  TGI: > 100 µM
SK-OV-3 ovarian
  TGI: > 100 µM
SN12C renal
  TGI: > 100 µM
SNB-19 CNS
  TGI: > 100 µM
SNB-75 CNS
  TGI: 75.1 µM
SNB-78 CNS
  TGI: > 100 µM
SR leukemia
  TGI: > 100 µM
SW-620 colon
  TGI: 27.6 µM
TK-10 renal
  TGI: > 100 µM
U251 CNS
  TGI: > 100 µM
UACC-257 melanoma
  TGI: > 100 µM
UACC-62 melanoma
  TGI: > 100 µM
UO-31 renal
  TGI: > 100 µM
XF 498 CNS
  TGI: > 100 µM
